In publication PMC10974505, “Evaluation of the Antifungal and Antiproliferative Properties of the Lichen Roccella tinctoria DC. Extracts and Main Components” (Pharmaceutics, 2024):
≈ marks a conversion by molar mass, not a printed value.

Tests used:
[1] = test system: A549 lung cancer cells; test: MTT cytotoxicity assay, A549 lung cancer cells; format: cell-based, human; conditions: for cytotoxicity at the highest concentration tested: A549 cells, 500 µg/mL
From the text: (§1) A549 cells were kindly provided by Prof. Lucia Nencioni (Dept. of Public Health and Infectious Diseases, Sapienza University of Rome, Rome, Italy), while Mz-ChA-1 and H69 cells were donated by Prof. Romina […]. of Anatomical, Histological, Forensic and Orthopedic Sciences, Sapienza University of Rome, Rome, Italy) and Prof. […] (Indiana University School of Medicine, Indianapolis, IN, USA). BEAS-2B cells were provided by Sigma-Aldrich (St. Louis, MO, USA). […] The growth media were replaced twice per week; subcultures were prepared when the cells achieved approximately 80% confluency. […] In brief, 2 × 10^4 cells/well were cultured into 96-well microplates for 24 h. Then, they were subjected to a treatment with progressive concentrations of the tested extracts for further 24 h. […] The effect of the treatments on the cell viability was expressed as percentage of the vehicle control. […] In addition, tolerability studies in human epithelial BEAS-2B bronchial cells and H69 cholangiocytes were performed in order to establish the possible selective cytotoxicity of the tested samples to cancer cells.

[2] = test system: MCF-7 (breast cancer cell line); design: method as in doi:10.32508/stdjns.v2i5.779; conditions: MCF-7, 100 µg/mL; isolated from Roccella sinensis; cited from earlier work
[3] = test system: C. albicans ATCC 10231; test: Galleria mellonella survival assay (larvae infected with C. albicans); format: in vivo
Description: The survival assay was carried out as described by Cairone and colleagues. G. mellonella larvae weighed 0.3 ± 0.03 g and were obtained from Todaro Sport (Rome, Italy). […] Three control groups were used, one with no treatment applied, one pierced and inoculated with sterile saline solution, and one treated with C. albicans suspension. The larvae were subsequently placed in an incubator set at 37 °C and observed for 120 h. […] Each trial was replicated three times, and the outcomes were documented as the survival percentage.
G. mellonella larvae as an in vivo model were chosen due to the similarities between their immunity system and the mammalian one. Furthermore, G. mellonella larvae provide a well-established in vivo model known for its ease of handling and utilization. They are extensively employed to assess the antimicrobial efficacy of both chemical and natural compounds, aligning with the ethical guidelines of the 3Rs (Replacement, Reduction, and Refinement) in animal research.

[4] = test system: HeLa (cervical cancer cell line); design: method as in doi:10.32508/stdjns.v2i5.779; conditions: 100 µg/mL, isolated from Roccella sinensis; cited from earlier work
[5] = test system: BEAS-2B bronchial cells; test: MTT tolerability assay, noncancerous BEAS-2B bronchial cells; format: cell-based, human; conditions: for inhibition of BEAS-2B cell viability: 50 µg/mL; for IC50: Homo sapiens, BEAS-2B, read-out: IC50 [µg/mL] (CL) BEAS-2B
From the text: as §1

[6] = test system: HepG2 (liver hepatocellular carcinoma cell line); design: method as in doi:10.32508/stdjns.v2i5.779; conditions: HepG2, 100 µg/mL; isolated from Roccella sinensis; cited from earlier work
[7] = test system: C. albicans planktonic cells; test: Antifungal susceptibility test (broth microdilution), planktonic cells; format: cell-based, Candida albicans ATCC 10231; conditions: for MIC50 / MIC90 / MIC: Candida albicans; for MIC50: read-out: GM MIC50; for MIC90: minimum inhibitory concentration of 90% fungal growth, read-out: GM MIC90; for MIC: minimum inhibitory concentration of 100% fungal growth, read-out: GM MIC100
Description: Candida albicans ATCC 10231 was obtained from the American Type Culture Collection (ATCC, Rockville, MD, USA). The antifungal effects of the isolated compounds and of the extracts against C. albicans ATCC 10231 were measured using the broth microdilution method following the standardized methods for yeast. C. albicans was cultured on Sabouraud dextrose agar (Sigma Aldrich, St. Louis, MO, USA) at 35 °C for 24 h. The final concentration of the inoculum was 2500 cells/mL. The extracts and the compounds were firstly dissolved in DMSO and then diluted at least 100-times with RPMI-1640 medium buffered with MOPS (4-morpholinepropanesulfonic acid). […] The minimal inhibitory concentration (MIC) was calculated by comparison of the growth in each well with that of the drug-free control after 24 h. Each experiment was conducted in triplicate and replicated at least three times on different dates.
The antifungal activity of extracts and isolated compounds against C. albicans planktonic cells was examined following the standardized broth microdilution method for yeasts (CLSI M27-A3).

[8] = test system: different fungal strains including C. albicans; design: method as in PMID 30732479; conditions: cited from earlier work
[9] = MTT tolerability assay, noncancerous H69 cholangiocytes; format: cell-based, human; conditions: human, SV40-immortalized H69 cholangiocytes (noncancerous); 50 µg/mL; read-out: lowering of H69 cell viability
From the text: as §1

[10] = test system: H69 cholangiocytes; test: as above; format: cell-based, human; conditions: MTT, 24 h treatment, confidence limits in brackets, ne 1 = not evaluable, highest inhibitory effect lower than 80%, ne 2 = not evaluable, lower inhibitory effect higher than 40%; for IC50: Homo sapiens, read-out: IC50 [µg/mL] (CL) H69
From the text: as §1

[11] = test system: NCI-H460 (human lung cancer cell line); design: method as in doi:10.32508/stdjns.v2i5.779; conditions: NCI-H460, 100 µg/mL; isolated from Roccella sinensis; cited from earlier work
[12] = test system: C. albicans biofilm; test: Anti-Candida biofilm formation, 24 h (CV assay); format: cell-based, Candida albicans; conditions: concentration not given
Description: Presterilized, polystyrene, flat-bottom 48-well microtiter plates were used to investigate anti-Candida adhesion property of the extracts and the compounds [47, 48]. […] After that time, the cell suspensions were aspirated, and each well was washed twice with PBS to remove loosely adherent cells. Thus, CV assay was used to quantitatively study Candida adhesion (90 min) and early biofilm formation (24 h). The biomass was measured at 590 nm using a microplate reader.
(§2) Candida adhesion is followed by the colonization and formation of the biofilm, which is a community of cells with the ability to secrete the extracellular matrix (ECM). Biofilm-characterized infections are the most difficult to treat, and preventing biofilm formation could be of major importance. An anti-Candida biofilm formation assay was conducted after 24 h and 48 h of biofilm incubation, and the total biomass was evaluated using the CV assay.

[13] = test system: Mz-ChA-1 cholangiocarcinoma cells; test: MTT cytotoxicity assay, Mz-ChA-1 cholangiocarcinoma cells; format: cell-based, human; conditions: for cytotoxicity at the highest concentration tested: Mz-ChA-1 cells, 500 µg/mL
From the text: as §1

[14] = test system: C. albicans biofilm; test: Anti-Candida biofilm formation, 48 h (CV assay); format: cell-based; conditions: 512 μg/mL
Description: Candida biofilm was established on flat-bottomed, 48-well microtiter plates, following previous protocols with minor modifications. […] Plates were then incubated for 48 h at 37 °C. After biofilm formation, the medium was aspirated, and non-adherent cells were removed by washing twice with phosphate-buffered saline (PBS). C. albicans biomass was quantified using CV assay.
as §2

[15] = test system: Fusarium oxysporum; design: method as in doi:10.4038/jnsfsr.v40i1.4167; conditions: 100 µg/mL; cited from earlier work
[16] = test system: Alternaria solani; design: method as in doi:10.4038/jnsfsr.v40i1.4167; conditions: 100 µg/mL; cited from earlier work
[17] = test system: HCT-116 colon cancer cells; design: method as in PMID 35190352; conditions: cited from earlier work
[18] = MTT, 24 h treatment, confidence limits in brackets, ne 1 = not evaluable, highest inhibitory effect lower than 80%, ne 2 = not evaluable, lower inhibitory effect higher than 40%
[19] = geometric mean, minimum inhibitory concentration of 50% fungal growth, 24 h

Compound	cytotoxicity at the highest concentration tested [1]	IC50 [µg/mL] (CL) A549 [1, 18]	inhibition of BEAS-2B cell viability [5]	MIC50 [7, 19] [µg/mL]	MIC90 ([7]; geometric mean, 24 h) [µg/mL]	MIC ([7]; geometric mean, 24 h) [µg/mL]	cytotoxicity at 24 h, 50 µg/mL [9] [%]	IC50 [10] [µg/mL]	IC50 [µg/mL] (CL) Mz-ChA-1 [13, 18]	cytotoxicity at the highest concentration tested [13]	IC50 [5, 18] [µg/mL]	further results
Cc1cc(OC(=O)c2c(C)cc(O)cc2O)cc(O)c1C(=O)OCC(O)C(O)CO (centres unmarked) [Compound 1, erythrin]	at least 60%	ne ^1	at least 40%	> 128	> 128	> 128	~40	138 (≈ 327 µM)	ne ^1	at least 60%	–	toxicity [2]: nontoxic; infected larvae mortality rate ([3]; 256 μg/mL (10 μL), control group mortality 90%): 20%; toxicity [4]: nontoxic; IC50 [µg/mL] (CL) BEAS-2B [5, 18]: ne ^2; toxicity [6]: nontoxic; activity against the planktonic growth of C. albicans ([7]; at the highest concentration (512 μg/mL)): no activity; antifungal activity [8]: not shown any antifungal activity; toxicity [11]: nontoxic; percent rate of inhibition of biofilm formation [12]: lower than 40%
COC(=O)c1c(C)cc(O)cc1O [Compound 2, methyl orsellinate]	lower than 50%	ne ^1	at least 40%	87 (≈ 478 µM)	> 128	> 128	60	–	ne ^1	lower than 50%	103 (≈ 564 µM)	larvae survival rate ([3]; 512 μg/mL (10 μL), after 5 days, infected control survival 10%): 50%; inhibition at 512 µg/mL [14]: 72%; GM MIC50 [7, 19]: 87 µg/mL; inhibition percentage [15]: 67.39%; inhibition percentage [16]: 58.41%; IC50 [µg/mL] (CL) H69 [10]: ne ^2
Cc1cc(O)cc(O)c1C(=O)OCC(O)C(O)CO (centres unmarked) [Compound 3, montagnetol]	–	–	–	–	–	–	–	–	–	–	–	melting point: 158 to 160 °C
COc1cccc2c1C(=O)c1c(O)c3c(c(O)c1C2=O)C[C@@](O)(C(=O)CO)C[C@@H]3O[C@H]1C[C@H](N)[C@H](O)[C@H](C)O1 [Doxorubicin, doxorubicin, reference compound]	–	–	–	–	–	–	–	15.7 (≈ 28.9 µM)	–	–	4.1 (≈ 7.54 µM)	IC50 ([1]; Homo sapiens, A549, MTT, 24 h treatment, confidence limits in brackets, ne 1 = not evaluable, highest inhibitory effect lower than 80%, ne 2 = not evaluable, lower inhibitory effect higher than 40%, read-out: IC50 [µg/mL] (CL) A549): 17.3 µg/mL (≈ 31.8 µM); IC50 ([13]; Homo sapiens, MTT, 24 h treatment, confidence limits in brackets, ne 1 = not evaluable, highest inhibitory effect lower than 80%, ne 2 = not evaluable, lower inhibitory effect higher than 40%, read-out: IC50 [µg/mL] (CL) Mz-ChA-1): 24.5 µg/mL (≈ 45.1 µM)
Cc1cc(OC(=O)c2c(C)cc(O)cc2O)cc(O)c1C(=O)O [lecanoric acid]	–	–	–	–	–	–	–	–	–	–	–	effect on HCT-116 cells [17]: affected the cell viability and colony formation, and it induced a cell cycle block
